Measured values taken from the NIST ThermoML archive (doi:10.1016/j.jct.2017.03.006).

Assay: xn = mol fraction of the nth substance listed
Settings: Liquid; for viscosity: Concentric cylinders viscometry; for mass density: Vibrating tube method

Cc1ccc(C)c(C)c1 [1,2,4-trimethylbenzene] + CCCCO
Settings	mass density [kg/m3]	viscosity [mPa·s]
313.15 K, 100 kPa, x2 = 0	859	–
313.15 K, 100 kPa, x2 = 0.1005	853.7	–
313.15 K, 100 kPa, x2 = 0.2261	847.1	–
313.15 K, 100 kPa, x2 = 0.2999	843.2	–
313.15 K, 100 kPa, x2 = 0.3966	837.7	–
313.15 K, 100 kPa, x2 = 0.5289	829.9	–
313.15 K, 100 kPa, x2 = 0.53	–	0.882
313.15 K, 100 kPa, x2 = 0.6367	822.9	–
313.15 K, 100 kPa, x2 = 0.637	–	0.994
313.15 K, 100 kPa, x2 = 0.7249	816.8	–
313.15 K, 100 kPa, x2 = 0.7975	–	1.254
313.15 K, 100 kPa, x2 = 0.7977	811.4	–
313.15 K, 100 kPa, x2 = 0.9131	802	1.516
313.15 K, 1000 kPa, x2 = 0	859.7	–
313.15 K, 1000 kPa, x2 = 0.1005	854.4	–
313.15 K, 1000 kPa, x2 = 0.2261	847.8	–
313.15 K, 1000 kPa, x2 = 0.2999	843.9	–
313.15 K, 1000 kPa, x2 = 0.3966	838.4	–
313.15 K, 1000 kPa, x2 = 0.5289	830.6	–
313.15 K, 1000 kPa, x2 = 0.6367	823.6	–
313.15 K, 1000 kPa, x2 = 0.7249	817.5	–
313.15 K, 1000 kPa, x2 = 0.7977	812	–
313.15 K, 1000 kPa, x2 = 0.9131	802.8	–
313.15 K, 5000 kPa, x2 = 0	862.6	–
313.15 K, 5000 kPa, x2 = 0.1005	857.3	–
313.15 K, 5000 kPa, x2 = 0.2261	850.7	–
313.15 K, 5000 kPa, x2 = 0.2999	846.9	–
313.15 K, 5000 kPa, x2 = 0.3966	841.5	–
313.15 K, 5000 kPa, x2 = 0.5289	833.7	–
313.15 K, 5000 kPa, x2 = 0.6367	826.7	–
313.15 K, 5000 kPa, x2 = 0.7249	820.6	–
313.15 K, 5000 kPa, x2 = 0.7977	815.2	–
313.15 K, 5000 kPa, x2 = 0.9131	805.9	–
313.15 K, 10000 kPa, x2 = 0	866	–
313.15 K, 10000 kPa, x2 = 0.1005	860.8	–
313.15 K, 10000 kPa, x2 = 0.2261	854.3	–
313.15 K, 10000 kPa, x2 = 0.2999	850.5	–
313.15 K, 10000 kPa, x2 = 0.3966	845.1	–
313.15 K, 10000 kPa, x2 = 0.5289	837.3	–
313.15 K, 10000 kPa, x2 = 0.6367	830.4	–
313.15 K, 10000 kPa, x2 = 0.7249	824.3	–
313.15 K, 10000 kPa, x2 = 0.7977	818.9	–
313.15 K, 10000 kPa, x2 = 0.9131	809.7	–
313.15 K, 20000 kPa, x2 = 0	872.6	–
313.15 K, 20000 kPa, x2 = 0.1005	867.5	–
313.15 K, 20000 kPa, x2 = 0.2261	861	–
313.15 K, 20000 kPa, x2 = 0.2999	857.2	–
313.15 K, 20000 kPa, x2 = 0.3966	851.9	–
313.15 K, 20000 kPa, x2 = 0.5289	844.1	–
313.15 K, 20000 kPa, x2 = 0.6367	837.3	–
313.15 K, 20000 kPa, x2 = 0.7249	831.2	–
313.15 K, 20000 kPa, x2 = 0.7977	825.8	–
313.15 K, 20000 kPa, x2 = 0.9131	816.7	–
313.15 K, 30000 kPa, x2 = 0	878.7	–
313.15 K, 30000 kPa, x2 = 0.1005	873.8	–
313.15 K, 30000 kPa, x2 = 0.2261	867.4	–
313.15 K, 30000 kPa, x2 = 0.2999	863.6	–
313.15 K, 30000 kPa, x2 = 0.3966	858.3	–
313.15 K, 30000 kPa, x2 = 0.5289	850.6	–
313.15 K, 30000 kPa, x2 = 0.6367	843.7	–
313.15 K, 30000 kPa, x2 = 0.7249	837.7	–
313.15 K, 30000 kPa, x2 = 0.7977	832.4	–
313.15 K, 30000 kPa, x2 = 0.9131	823.2	–
313.15 K, 40000 kPa, x2 = 0	884.5	–
313.15 K, 40000 kPa, x2 = 0.1005	879.6	–
313.15 K, 40000 kPa, x2 = 0.2261	873.2	–
313.15 K, 40000 kPa, x2 = 0.2999	869.5	–
313.15 K, 40000 kPa, x2 = 0.3966	864.1	–
313.15 K, 40000 kPa, x2 = 0.5289	856.5	–
313.15 K, 40000 kPa, x2 = 0.6367	849.7	–
313.15 K, 40000 kPa, x2 = 0.7249	843.7	–
313.15 K, 40000 kPa, x2 = 0.7977	838.4	–
313.15 K, 40000 kPa, x2 = 0.9131	829.4	–
313.15 K, 50000 kPa, x2 = 0	889.9	–
313.15 K, 50000 kPa, x2 = 0.1005	885	–
313.15 K, 50000 kPa, x2 = 0.2261	878.7	–
313.15 K, 50000 kPa, x2 = 0.2999	875	–
313.15 K, 50000 kPa, x2 = 0.3966	869.7	–
313.15 K, 50000 kPa, x2 = 0.5289	862.1	–
313.15 K, 50000 kPa, x2 = 0.6367	855.3	–
313.15 K, 50000 kPa, x2 = 0.7249	849.4	–
313.15 K, 50000 kPa, x2 = 0.7977	844	–
313.15 K, 50000 kPa, x2 = 0.9131	835	–
313.15 K, 60000 kPa, x2 = 0	895	–
313.15 K, 60000 kPa, x2 = 0.1005	890.2	–
313.15 K, 60000 kPa, x2 = 0.2261	883.9	–
313.15 K, 60000 kPa, x2 = 0.2999	880.2	–
313.15 K, 60000 kPa, x2 = 0.3966	875	–
313.15 K, 60000 kPa, x2 = 0.5289	867.4	–
313.15 K, 60000 kPa, x2 = 0.6367	860.6	–
313.15 K, 60000 kPa, x2 = 0.7249	854.7	–
313.15 K, 60000 kPa, x2 = 0.7977	849.3	–
313.15 K, 60000 kPa, x2 = 0.9131	840.3	–
313.15 K, 70000 kPa, x2 = 0	899.9	–
313.15 K, 70000 kPa, x2 = 0.1005	895.2	–
313.15 K, 70000 kPa, x2 = 0.2261	888.9	–
313.15 K, 70000 kPa, x2 = 0.2999	885.2	–
313.15 K, 70000 kPa, x2 = 0.3966	880	–
313.15 K, 70000 kPa, x2 = 0.5289	872.5	–
313.15 K, 70000 kPa, x2 = 0.6367	865.6	–
313.15 K, 70000 kPa, x2 = 0.7249	859.8	–
313.15 K, 70000 kPa, x2 = 0.7977	854.4	–
313.15 K, 70000 kPa, x2 = 0.9131	845.4	–
313.15 K, 80000 kPa, x2 = 0	904.6	–
313.15 K, 80000 kPa, x2 = 0.1005	899.9	–
313.15 K, 80000 kPa, x2 = 0.2261	893.7	–
313.15 K, 80000 kPa, x2 = 0.2999	890.1	–
313.15 K, 80000 kPa, x2 = 0.3966	884.8	–
313.15 K, 80000 kPa, x2 = 0.5289	877.3	–
313.15 K, 80000 kPa, x2 = 0.6367	870.5	–
313.15 K, 80000 kPa, x2 = 0.7249	864.6	–
313.15 K, 80000 kPa, x2 = 0.7977	859.3	–
313.15 K, 80000 kPa, x2 = 0.9131	850.3	–
313.15 K, 90000 kPa, x2 = 0	909	–
313.15 K, 90000 kPa, x2 = 0.1005	904.4	–
313.15 K, 90000 kPa, x2 = 0.2261	898.1	–
313.15 K, 90000 kPa, x2 = 0.2999	894.5	–
313.15 K, 90000 kPa, x2 = 0.3966	889.2	–
313.15 K, 90000 kPa, x2 = 0.5289	881.9	–
313.15 K, 90000 kPa, x2 = 0.6367	875.1	–
313.15 K, 90000 kPa, x2 = 0.7249	869.1	–
313.15 K, 90000 kPa, x2 = 0.7977	863.8	–
313.15 K, 90000 kPa, x2 = 0.9131	854.8	–
313.15 K, 100000 kPa, x2 = 0	913.3	–
313.15 K, 100000 kPa, x2 = 0.1005	908.7	–
313.15 K, 100000 kPa, x2 = 0.2261	902.5	–
313.15 K, 100000 kPa, x2 = 0.2999	898.8	–
313.15 K, 100000 kPa, x2 = 0.3966	893.6	–
313.15 K, 100000 kPa, x2 = 0.5289	886.2	–
313.15 K, 100000 kPa, x2 = 0.6367	879.4	–
313.15 K, 100000 kPa, x2 = 0.7249	873.5	–
313.15 K, 100000 kPa, x2 = 0.7977	868.2	–
313.15 K, 100000 kPa, x2 = 0.9131	859.2	–
313.15 K, 120000 kPa, x2 = 0	921.4	–
313.15 K, 120000 kPa, x2 = 0.1005	916.9	–
313.15 K, 120000 kPa, x2 = 0.2261	910.7	–
313.15 K, 120000 kPa, x2 = 0.2999	907.1	–
313.15 K, 120000 kPa, x2 = 0.3966	901.9	–
313.15 K, 120000 kPa, x2 = 0.5289	894.5	–
313.15 K, 120000 kPa, x2 = 0.6367	887.7	–
313.15 K, 120000 kPa, x2 = 0.7249	881.8	–
313.15 K, 120000 kPa, x2 = 0.7977	876.5	–
313.15 K, 120000 kPa, x2 = 0.9131	867.5	–
313.15 K, 140000 kPa, x2 = 0	928.9	–
313.15 K, 140000 kPa, x2 = 0.1005	924.3	–
313.15 K, 140000 kPa, x2 = 0.2261	918.7	–
313.15 K, 140000 kPa, x2 = 0.2999	914.5	–
313.15 K, 140000 kPa, x2 = 0.3966	909.6	–
313.15 K, 140000 kPa, x2 = 0.5289	902.2	–
313.15 K, 140000 kPa, x2 = 0.6367	895.5	–
313.15 K, 140000 kPa, x2 = 0.7249	889.6	–
313.15 K, 140000 kPa, x2 = 0.7977	884.4	–
313.15 K, 140000 kPa, x2 = 0.9131	875.3	–
323.15 K, 100 kPa, x2 = 0	–	0.62
323.15 K, 100 kPa, x2 = 0.1002	–	0.615
323.15 K, 100 kPa, x2 = 0.2327	–	0.631
323.15 K, 100 kPa, x2 = 0.3	–	0.653
323.15 K, 100 kPa, x2 = 0.3969	–	0.683
323.15 K, 100 kPa, x2 = 0.53	–	0.754
323.15 K, 100 kPa, x2 = 0.637	–	0.835
